Assay [1] has as its target T1, melibiose permease (MelB) (Salmonella typhimurium, UniProt P30878).
T1 construct: made in house; host or cells: E. coli DW2-R (ΔmelB, ΔlacZY), vector pK35ΔAHB/WT MelB/CH6
The assay can be described thus: MelB solubilization and thermostability (SDS-PAGE, immunoblot). The following applies: 1.5 wt %; for MelB extraction from membranes at 0° C.: 10 min or 90 min. As for the experimental part: DDM (1.5 wt %) or GDN (1.5 wt %) was used to extract MelB from S. typhimurium membranes at 0° C. for 10 min or 90 min and then aggregated material was removed via ultracentrifugation. The amount of MelB in solution was determined by SDS-PAGE with immunoblot detection (FIG. 10).
The effect of DDM and GDN on MelB thermostability was assessed by solubilizing the protein at the elevated temperatures for 90 min. […] Presumably MelB denatured and aggregated at the higher temperature in the presence of DDM. […] When MelB expressed in E. coli was used, similar results were obtained (FIG. 11).
The protocol reported by Chae and coworkers (Nat. Methods 2010, 7, 1003-1008) was used to evaluate MelB stability with DDM and GDN.
The reported protocol3 was used to evaluate MelB stability with DDM and GDN. Vector pK35ΔAHB/WT MelB/CH6 encoding the wild-type MelB with a 6-His tag at the C-terminus and E. coli DW2-R cells (ΔmelB and ΔlacZY) are used for the assay. Cells were harvested, resuspended in a buffer containing 20 mM Tris, pH 7.5, 200 mM NaCl and 10% glycerol. The harvested cells were subjected to French press and centrifugation at 20,000 g for 15 min. Subsequently, membranes were obtained via ultracentrifugation at 43,000 rpm for 3 hr in the Beckman rotor, Type 45 Ti rotor. A protein assay was carried out with a BCA kit (Thermo Scientific, Rockford, Ill.). For the measurement of solubilization efficiency, membrane samples containing MelB were incubated with a solubilization buffer (20 mM Tris, 200 mM NaCl, 10% glycerol, 20 mM melibiose, pH, 7.5) and 1.5 wt % DDM or GDN at 0° C. for 10 min. The final protein concentration was 10 mg/mL. For the MelB thermostability, the samples were incubated for 90 min at the four different temperatures (0, 45, 55, and 65° C.). After ultracentrifugation at 355,590 g in a Beckman Optima™ MAX Ultracentrifuge using a TLA-100 rotor for 45 min at 4° C., 10 μg protein before and after spin for each condition was analyzed by SDS-12% PAGE and immunoblotted with Penta-His-HRP antibody (Qiagen, Germantown, Md.).

A further assay deals with membrane proteins. Put plainly: Retention of extracted membrane proteins in soluble form in micelles (summary). The source says: The amphiphiles were thus evaluated as membrane protein solubilizers and stabilizers and they compared very favorably with DDM, a standard reagent in the field. Compared to DDM, for example, one of the evaluated amphiphiles forms micelles at one-tenth of the concentration required for DDM. Compared with DDM, GDN performs similarly for extracting membrane proteins from membranes, and stably retains the proteins in a soluble form within the micelles for substantially longer (>3 weeks) than DDM. Such improved stability (without sacrificing extraction efficiency) is a valuable trait for research tool amphiphiles.
The amphiphiles described herein require lower concentrations than many commonly used surfactants to form stable micelles.

For the next assay, the target named is T2, Bacteriorhodopsin (bR) (Halobacterium salinarum, UniProt P02945).
T2 construct: Frozen aliquots of purple membranes containing bR at 184 μM were thawed at room temperature; endogenous in cells; host or cells: purple membranes (native)
T2 sequence (P02945 14-261 limits assumed): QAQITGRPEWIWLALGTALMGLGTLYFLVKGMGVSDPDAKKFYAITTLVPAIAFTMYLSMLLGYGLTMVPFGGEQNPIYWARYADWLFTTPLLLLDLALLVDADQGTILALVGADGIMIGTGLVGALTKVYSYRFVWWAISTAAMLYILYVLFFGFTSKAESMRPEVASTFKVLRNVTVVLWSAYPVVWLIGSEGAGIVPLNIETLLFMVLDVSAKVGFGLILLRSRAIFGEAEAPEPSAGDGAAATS
The assay can be described thus: Bacteriorhodopsin stability (absorbance at 554 nm). The following applies: 0.2 wt % OTG+1.6 wt % agent, RT; for Maintaining the native structure of bR compared with conventional detergents: absorbance at 554 nm over 20 days. As for the experimental part:
bR was extracted from the native purple membrane with 2.0 wt % octyl-β-D-thioglucoside (OTG) (see Bazzacco at al., Biomacromolecules 2009, 10, 3317-3326). Following ultracentrifugation to remove insoluble debris, the bR solution was diluted with amphiphile solutions to give 0.2 wt % OTG+1.6 wt % new agent or DDM. The absorbance of the solutions at 554 nm was measured periodically over 20 days. […] When the assay was conducted at a lower amphiphile concentration, 0.2 wt % OTG+0.8 wt % new agent or DDM, similar results were obtained (FIG. 3).
The procedure for the bR stability assay followed the protocol reported by Bazzacco and coworkers (Biomacromolecules 2009, 10, 3317-3326).
The procedure for the bR stability assay generally followed the reported protocol (Bazzacco et al., Biomacromolecules 2009, 10, 3317-3326). Frozen aliquots of purple membranes containing bR at 184 μM were thawed at room temperature and solubilized by using an octylthioglucoside (OTG) solution for 24 hr at 4° C. in a dark room. For this purpose, OTG (CMC=0.28 wt %) was used at 2.0 wt % in 10 mM sodium phosphate (pH 6.9). Membrane debris was then removed from the solubilized material via ultracentrifugation at 200,000 g at 4° C. for 20 min. The supernatant, including bR protein, was transferred into individual DDM, GLC, or GDN solutions, giving final concentration of OTG: new amphiphiles=0.2 wt %: 0.8 wt % (1:4) or 0.2 wt %:1.6 wt % (1:8). The stability of bR in each solution was monitored by measuring absorbance at 554 nm over 20 days.

T1 sequence (P30878 whole entry): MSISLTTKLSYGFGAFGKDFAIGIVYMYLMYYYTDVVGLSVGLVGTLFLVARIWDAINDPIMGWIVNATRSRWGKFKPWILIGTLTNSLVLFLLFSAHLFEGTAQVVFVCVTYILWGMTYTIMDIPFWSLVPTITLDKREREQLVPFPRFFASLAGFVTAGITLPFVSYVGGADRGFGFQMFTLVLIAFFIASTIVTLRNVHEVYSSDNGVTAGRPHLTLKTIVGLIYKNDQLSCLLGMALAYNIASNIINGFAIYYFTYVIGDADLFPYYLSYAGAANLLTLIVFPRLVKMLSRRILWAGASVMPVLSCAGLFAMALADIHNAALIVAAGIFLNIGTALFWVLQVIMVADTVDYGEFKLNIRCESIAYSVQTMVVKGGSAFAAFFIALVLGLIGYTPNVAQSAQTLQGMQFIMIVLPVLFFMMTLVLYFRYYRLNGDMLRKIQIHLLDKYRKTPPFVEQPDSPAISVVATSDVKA

Turning to `CCCCCCCCCCCCO[C@@H]1O[C@H](CO)[C@@H](O[C@H]2O[C@H](CO)[C@@H](O)[C@H](O)[C@H]2O)[C@H](O)[C@H]1O` [DDM, dodecyl-β-D-maltoside, reference compound], the “MelB extraction from membranes at 0° C.” value in assay [1] was “quantitatively extract”. Besides, the “Soluble MelB at 45° C.” value in assay [1] (90 min, 45° C.) is recorded as “high yield of soluble MelB”. Besides, the “Soluble MelB at 55° C.” value in assay [1] (90 min) is given as “no soluble protein was obtained”. The “Time until stabilized protein activity began to decay” value in the assay on membrane proteins is on record as “a few hours or a few days”.

As to `C[C@@H]1CC[C@@]2(OC1)O[C@H]1C[C@H]3[C@@H]4CC=C5C[C@@H](OCCC(CO[C@@H]6OC(CO)[C@@H](O[C@H]7OC(CO)[C@@H](O)C(O)C7O)C(O)C6O)CO[C@@H]6OC(CO)[C@@H](O[C@H]7OC(CO)[C@@H](O)C(O)C7O)C(O)C6O)CC[C@]5(C)[C@H]4CC[C@]3(C)[C@@H]1[C@@H]2C` (some centres unmarked) [GDN, glyco-diosgenin], the “Loss in bR protein integrity after 20 days” value on Bacteriorhodopsin (bR) (absorbance at 554 nm) is listed as “negligible loss in protein integrity”. Moreover, on Bacteriorhodopsin (bR), the “Maintaining the native structure of bR compared with conventional detergents” value was “more effective than conventional detergents OTG and DDM”. Further, in assay [1], the “MelB extraction from membranes at 0° C.” value is reported as “not quite as efficient in extraction”. In addition, the “Soluble MelB at 55° C.” value in assay [1] (90 min) was “large amounts of soluble protein”. Besides, the “Soluble MelB at 65° C.” value in assay [1] (90 min, 65° C.) was “large amounts of soluble protein”. Besides, the “Time proteins are stably retained in soluble form within the micelles” value in the assay with membrane proteins is recorded as greater than 3 weeks.

As for `CO[C@@H]1CC[C@@]2(C)[C@H](CC[C@@H]3[C@@H]2CC[C@]2(C)[C@@H]([C@H](C)CCCOCC(C)(CO[C@@H]4OC(CO)C(O[C@@H]5OC(CO)[C@@H](O)[C@H](O)C5O)[C@@H](O)C4O)CO[C@@H]4OC(CO)[C@@H](O[C@H]5OC(CO)[C@@H](O)[C@H](O)C5O)[C@H](O)C4O)CC[C@@H]32)C1` (some centres unmarked) [GLC-2], the “Maintaining the native structure of bR compared with conventional detergents” value at Bacteriorhodopsin (bR) was “more effective than conventional detergents OTG and DDM”.

Values taken from US9556217B2, “Amphiphilic compounds” (WISCONSIN ALUMNI RESEARCH FOUNDATION, priority 2012, dated 2017).
